# Measured values taken from PMC9728188, “Cloning and Functional Characterization of Putative Escherichia coli ABC Multidrug Efflux Transporter YddA” (Journal of Microbiology and Biotechnology, 2020).
# Key:
# Format in all cases: cell-based
# YddA [1] = target: T1, YddA (Escherichia coli, UniProt P31826); assay: fluorescence efflux and accumulation assays in whole cells, yddA knockout vs parent strains; also inhibits norfloxacin efflux
# YddA [2] = target: T1, YddA; assay: fluorescence efflux and accumulation assays in whole cells, yddA knockout vs parent strains
# YddA [3] = target: T1, YddA; assay: inhibition of norfloxacin efflux in whole cells (fluorescence)
# Source text: inhibition of norfloxacin efflux in whole cells (fluorescence) on YddA | Efflux of norfloxacin by YddA transporter was inhibited by reserpine
# T1 sequence (P31826 whole entry): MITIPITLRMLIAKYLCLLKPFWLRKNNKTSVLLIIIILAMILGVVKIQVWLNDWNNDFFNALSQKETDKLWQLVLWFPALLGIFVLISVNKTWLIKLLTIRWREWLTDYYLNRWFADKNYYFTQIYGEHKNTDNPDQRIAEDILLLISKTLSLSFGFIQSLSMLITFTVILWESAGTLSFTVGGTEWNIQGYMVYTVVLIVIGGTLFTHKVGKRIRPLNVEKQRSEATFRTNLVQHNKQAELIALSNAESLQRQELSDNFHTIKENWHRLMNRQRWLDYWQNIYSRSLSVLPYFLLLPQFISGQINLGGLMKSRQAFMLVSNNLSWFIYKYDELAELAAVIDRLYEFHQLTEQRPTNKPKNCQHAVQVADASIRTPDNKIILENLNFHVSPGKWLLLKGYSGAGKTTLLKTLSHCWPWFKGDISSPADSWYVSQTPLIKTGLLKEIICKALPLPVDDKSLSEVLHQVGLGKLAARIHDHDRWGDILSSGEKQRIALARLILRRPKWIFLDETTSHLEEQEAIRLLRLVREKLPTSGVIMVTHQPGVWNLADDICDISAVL
structure (smiles),measurement,setting,value
"CC[n+]1c(-c2ccccc2)c2cc(N)ccc2c2ccc(N)cc21 [EB, ethidium bromide]","fluorescence efflux and accumulation assays in whole cells, yddA knockout vs par",YddA [1],"indicating that yddA knockout reduced EB efflux, which increased the accumulation of EB in cells"
CCn1cc(C(=O)O)c(=O)c2cc(F)c(N3CCNCC3)cc21 [norfloxacin],"fluorescence efflux and accumulation assays in whole cells, yddA knockout vs par",YddA [2],The results showed that knockout of yddA led to less norfloxacin efflux out of cells.
COC(=O)[C@H]1[C@H]2C[C@@H]3c4[nH]c5cc(OC)ccc5c4CCN3C[C@H]2C[C@@H](OC(=O)c2cc(OC)c(OC)c(OC)c2)[C@@H]1OC [reserpine],IC50,YddA [3],120 µM
